Read-outs that look alike come from different tables or passages of the source.

In one data set the target is T1, human VR1 (Homo sapiens, UniProt Q8NER1).
T1 construct: expressed in transfected cells
As to the kind of experiment: Capsaicin-induced Ca2+ influx in the human VR1-transfected CHO cell line (Assay 1). The class given is cell-based. As for the experimental part:
[Measurement of Capsaicin-Induced Ca^2+ Influx in the Human VR1-Transfected CHO Cell Line] (Assay 1)
(1) Establishment of the Human VR1-CHOluc9aeq Cell Line
The cloned hVR1 cDNA was constructed with pcDNA3 vector and transfected into a CHOluc9aeq cell line. The cell line contains aequorin and CRE-luciferase reporter genes as read-out signals. The transfectants were cloned by limiting dilution in selection medium (DMEM/F12 medium (Gibco BRL) supplemented with 10% FCS, 1.4 mM Sodium pyruvate, 20 mM HEPES, 0.15% Sodium bicarbonate, 100 U/ml penicillin, 100 μg/ml streptomycin, 2 mM glutamine, non-essential amino acids and 2 mg/ml G418). Ca^2+ influx was examined in the capsaicin-stimulated clones. […] The human VR1-CHOluc9aeq cells were maintained in the selection medium and passaged every 3-4 days at 1-2.5×10^5 cells/flask ([…]).
(2) Measurement of Ca^2+ Influx Using FDSS-3000
Human VR1-CHOluc9aeq cells were suspended in a culture medium which is the same as the selection medium except for G418 and seeded at a density of 1,000 cells per well into 384-well plates (black walled clear-base/Nalge Nunc International). […] After washing twice with assay buffer the cells were incubated with a test compound or vehicle for 20 min at 25° C. […] Integral R was calculated and compared with controls.

Setting [1] is: human VR1-CHOluc9aeq cells, 10 nM capsaicin, compound purity about 40 to 90%, read-out: Activity grade.
Where [2] appears, read: human VR1-CHOluc9aeq cells, 10 nM capsaicin, compound purity about 40 to 90%, read-out: hVR1 class.

T1 sequence (Q8NER1 whole entry): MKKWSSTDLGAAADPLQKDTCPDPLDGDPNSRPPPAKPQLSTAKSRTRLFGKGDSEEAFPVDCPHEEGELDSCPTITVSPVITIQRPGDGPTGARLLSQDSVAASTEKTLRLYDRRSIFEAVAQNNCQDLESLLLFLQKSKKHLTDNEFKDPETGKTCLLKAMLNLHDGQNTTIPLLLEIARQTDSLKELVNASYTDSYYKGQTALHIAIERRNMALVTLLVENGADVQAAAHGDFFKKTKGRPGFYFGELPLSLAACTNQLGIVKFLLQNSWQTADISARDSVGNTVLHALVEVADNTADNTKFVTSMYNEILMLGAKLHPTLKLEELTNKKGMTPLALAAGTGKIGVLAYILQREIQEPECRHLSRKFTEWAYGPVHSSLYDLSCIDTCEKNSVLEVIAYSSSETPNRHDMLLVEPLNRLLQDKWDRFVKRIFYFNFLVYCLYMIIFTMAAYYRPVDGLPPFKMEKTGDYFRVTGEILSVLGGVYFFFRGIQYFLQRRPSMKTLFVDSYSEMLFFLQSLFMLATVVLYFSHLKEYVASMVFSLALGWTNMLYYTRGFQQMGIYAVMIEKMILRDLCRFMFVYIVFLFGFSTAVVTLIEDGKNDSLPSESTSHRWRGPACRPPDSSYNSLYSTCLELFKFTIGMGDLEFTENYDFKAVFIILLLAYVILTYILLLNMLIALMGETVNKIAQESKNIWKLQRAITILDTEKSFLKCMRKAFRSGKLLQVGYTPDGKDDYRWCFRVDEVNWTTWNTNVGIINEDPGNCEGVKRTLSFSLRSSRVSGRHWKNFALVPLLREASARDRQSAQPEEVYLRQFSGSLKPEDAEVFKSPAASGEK

As usually defined, the melting point is the temperature, or range, at which the solid turns liquid. As for `COc1cc(CNC(=O)Nc2ccc(C(C)C)cc2)ccc1O` [Example 1-1, N-(4-hydroxy-3-methoxybenzyl)-N′-(4-isopropylphenyl)urea], the melting point came to 156 °C. Moreover, the IC50 at human VR1 was less than 100 nM.
Compound `O=C(Nc1ccc(Cl)c(Cl)c1)Nc1ccccc1CCO` [Example 1-2, N-(3,4-dichlorophenyl)-N′-[2-(2-hydroxyethyl)phenyl]urea] registered a melting point of 188 to 190 °C. The IC50 on human VR1 (setting [1]) is less than 100 nM.
For the compound `COc1cc(CNC(=O)Nc2cccc(-c3ccc(Cl)cc3)c2)ccc1O` [Example 2-1, N-(4′-chloro-1,1′-biphenyl-3-yl)-N′-(4-hydroxy-3 methoxybenzyl)urea], the melting point came out at 153.4 °C. Moreover, on human VR1 (setting [1]), the IC50 is less than 100 nM.
Regarding `O=C(Nc1cccc(-c2ccccc2)c1)Nc1ccccc1CCO` [Example 3-1, N-(1,1′-biphenyl-3-yl)-N′-[2-(2-hydroxyethyl)phenyl]urea], the melting point lay in the range of 196 to 198 °C. Further, at human VR1 (setting [1]), the IC50 was less than 100 nM.
In turn, `COc1cccc(NC(=O)NCc2ccc(O)c(OC)c2)c1` [Example 34] showed a melting point of 133 °C. Besides, the IC50 at human VR1 (setting [2]) fell in the range of 500 to 1000 nM.
As to `COc1ccc2c(c1)C(NC(=O)Nc1ccc(F)cc1)CCC2` (centres unmarked) [Example 53], the melting point came out at 177.5 °C. Besides, the IC50 at human VR1 (setting [2]) was in the range of 500 to 1000 nM.
In the case of `O=C(Nc1ccc(Cl)c(C(F)(F)F)c1)NC1CCCc2ccc(O)cc21` (centres unmarked) [Example 54], the melting point worked out at 201 °C.
With `COc1cc(CNC(=O)Nc2ccc(Cl)c(C(F)(F)F)c2)ccc1O` [Example 55], the melting point was 193 °C. Further, the IC50 on human VR1 (setting [2]) was less than 100 nM.
The like results for `COc1cc(CNC(=O)Nc2ccc(F)cc2)ccc1O` [Example 56] were, in that order, 211 to 212 °C and 500 to 1000 nM.
`COc1cc(CNC(=O)Nc2ccccc2OC)ccc1O` [Example 57]: the melting point amounted to 144 °C. For the same compound, the IC50 at human VR1 (setting [2]) fell in the range of 500 to 1000 nM.
On to `COc1cc(CNC(=O)Nc2ccccc2[N+](=O)[O-])ccc1O` [Example 58], for which the melting point turned out to be 180 °C. The IC50 on human VR1 (setting [2]) lay within 500 to 1000 nM.
The like results for `COc1cc(CNC(=O)Nc2c(C)cccc2C)ccc1O` [Example 60] were, in that order, 211 °C and 500 to 1000 nM.
The like results for `COc1cc(CNC(=O)Nc2ccc(C)cc2C)ccc1O` [Example 62] were, in that order, 184 °C and 500 to 1000 nM.
Turning to `COc1cc(CNC(=O)Nc2ccc(Br)cc2)ccc1O` [Example 63], the melting point is 203 °C. Moreover, on human VR1 (setting [2]), the IC50 lay in the range of 100 to 500 nM.
In the case of `COc1cc(CNC(=O)Nc2ccc(Cl)c([N+](=O)[O-])c2)ccc1O` [Example 64], the melting point amounted to 180 °C. The IC50 at human VR1 (setting [2]) lay in the range of 100 to 500 nM.
For the compound `COc1cc(CNC(=O)Nc2cc([N+](=O)[O-])ccc2F)ccc1O` [Example 65], the melting point came out at 208 °C. For the same compound, the IC50 on human VR1 (setting [2]) was 500 to 1000 nM.
As to `COc1cc(CNC(=O)Nc2ccc(F)c([N+](=O)[O-])c2)ccc1O` [Example 66], the melting point turned out to be 184 °C. The compound further displayed an IC50 against human VR1 of 100 to 500 nM.
Take `COc1cc(CNC(=O)Nc2cccc3ccccc23)ccc1O` [Example 70]: the melting point was found to be 149 °C. Further, on human VR1, the IC50 is less than 100 nM.
In turn, `COc1cc(CNC(=O)Nc2ccc(Cl)c(Cl)c2)ccc1O` [Example 71] showed a melting point of 207 °C. In addition, the IC50 on human VR1 (setting [2]) is less than 100 nM.
In turn, `COc1cc(CNC(=O)Nc2c(C)cc(C)cc2C)ccc1O` [Example 72] gave a melting point of 217 °C. The IC50 at human VR1 (setting [2]) is 500 to 1000 nM.
In turn, `COc1cc2c(cc1O)CN(C(=O)Nc1ccc(Cl)c(C(F)(F)F)c1)CC2` [Example 78] returned a melting point of 130 °C.
In the case of `COc1cc(CNC(=O)Nc2cccc(C)c2)ccc1O` [Example 82], the melting point was determined as 181 °C. This compound also came in with an IC50 against human VR1 of 100 to 500 nM.
Turning to `COc1cc(CNC(=O)Nc2ccc(Cl)cc2)ccc1O` [Example 83], the melting point is 210 °C. In addition, at human VR1 (setting [2]), the IC50 is less than 100 nM.
`Nc1ccc2c(c1)C(NC(=O)Nc1ccc(Cl)c(C(F)(F)F)c1)CCC2` (centres unmarked) [Example 96] had a melting point of 178 °C. In addition, on human VR1 (setting [2]), the IC50 was in the range of 500 to 1000 nM.
Consider `O=C(Nc1ccc(Cl)c(C(F)(F)F)c1)Nc1ccccc1CCO` [Example 98], for which the melting point fell in the range of 175 to 177 °C. Moreover, at human VR1 (setting [2]), the IC50 is less than 100 nM.
`O=C(Nc1ccc(Oc2ccccc2)cc1)Nc1ccccc1CCO` [Example 99] displayed a melting point of 133 to 135 °C. For the same compound, on human VR1 (setting [2]), the IC50 was less than 100 nM.
The like results for `CCOC(=O)c1cccc(NC(=O)Nc2ccccc2CCO)c1` [Example 100] were, in that order, 152 to 153 °C and 100 to 500 nM.
Compound `CC(C)c1ccc(NC(=O)Nc2ccccc2CCO)cc1` [Example 101] had a melting point of 149 to 150 °C. The IC50 at human VR1 (setting [2]) lay within 100 to 500 nM.
In turn, `O=C(Nc1ccc2ccccc2c1)Nc1ccccc1CCO` [Example 102] registered a melting point of 195 to 197 °C. Besides, the IC50 at human VR1 (setting [2]) was 100 to 500 nM.
In turn, `O=C(NCc1ccc(Br)cc1)Nc1ccccc1CCO` [Example 103] had a melting point of 198 to 200 °C. The IC50 at human VR1 (setting [2]) is 100 to 500 nM.
In turn, `O=C(Nc1ccccc1Cl)Nc1ccccc1CCO` [Example 104] gave a melting point of 173 to 175 °C. Also, the IC50 at human VR1 (setting [2]) was 500 to 1000 nM.
`O=C(Nc1cccc(Cl)c1)Nc1ccccc1CCO` [Example 105] displayed a melting point of 188 to 190 °C. Further, on human VR1 (setting [2]), the IC50 was 500 to 1000 nM.
`O=C(Nc1ccc(Cl)cc1)Nc1ccccc1CCO` [Example 106] registered a melting point of 185 to 187 °C. Also, on human VR1 (setting [2]), the IC50 lay in the range of 500 to 1000 nM.
The like results for `O=C(Nc1cccc(C(F)(F)F)c1)Nc1ccccc1CCO` [Example 107] were, in that order, 173 to 175 °C and 100 to 500 nM.
The like results for `O=C(Nc1ccc(C(F)(F)F)cc1)Nc1ccccc1CCO` [Example 108] were, in that order, 178 to 180 °C and 100 to 500 nM.
The like results for `O=C(Nc1cc(Cl)cc(Cl)c1)Nc1ccccc1CCO` [Example 109] were, in that order, 214 to 216 °C and 100 to 500 nM.
Turning to `O=C(Nc1ccc([N+](=O)[O-])cc1)Nc1ccccc1CCO` [Example 110], the melting point stood at 178 °C. The IC50 on human VR1 (setting [2]) was in the range of 500 to 1000 nM.
Take `O=C(Nc1ccc(F)c([N+](=O)[O-])c1)Nc1ccccc1CCO` [Example 111]: the melting point worked out at 185 °C. On human VR1 (setting [2]), the IC50 was 500 to 1000 nM.
As for `O=C(Nc1cc([N+](=O)[O-])ccc1F)Nc1ccccc1CCO` [Example 112], the melting point was 183 °C. For the same compound, at human VR1 (setting [2]), the IC50 was in the range of 500 to 1000 nM.
The compound `O=C(Nc1ccc(Cl)c([N+](=O)[O-])c1)Nc1ccccc1CCO` [Example 113] had a melting point of 170 °C. Moreover, the IC50 on human VR1 (setting [2]) was in the range of 100 to 500 nM.
The compound `O=C(Nc1ccc(Br)cc1)Nc1ccccc1CCO` [Example 114] showed a melting point of 208 °C. For the same compound, the IC50 at human VR1 (setting [2]) was 500 to 1000 nM.
For `O=C(Nc1ccccc1F)Nc1ccccc1CCO` [Example 130], at human VR1 (setting [2]), the IC50 is 500 to 1000 nM.
The same measure, in the same setting: the figure for `O=C(Nc1ccccc1CCO)Nc1cccc(Cl)c1Cl` [Example 137] is 500 to 1000 nM; for `O=C(Nc1ccc(Cl)cc1Cl)Nc1ccccc1CCO` [Example 138] it is 500 to 1000 nM; for `O=C(Nc1ccccc1CCO)Nc1c(Cl)cccc1Cl` [Example 139] it is 500 to 1000 nM.
On to `CCOC(=O)c1ccccc1NC(=O)Nc1ccccc1CCO` [Example 140], for which the IC50 on human VR1 (setting [2]) lay within 500 to 1000 nM.
The same measure, in the same setting: the figure for `O=C(Nc1ccccc1CCO)Nc1ccccc1-c1ccccc1` [Example 141] is 500 to 1000 nM; for `CC(C)c1cccc(C(C)C)c1NC(=O)Nc1ccccc1CCO` [Example 142] it is 500 to 1000 nM; for `O=C(Nc1ccccc1CCO)Nc1ccc(Cl)cc1C(F)(F)F` [Example 143] it is 500 to 1000 nM.
On to `O=C(Nc1cc(C(F)(F)F)ccc1Cl)Nc1ccccc1CCO` [Example 144], for which the IC50 on human VR1 (setting [2]) lay in the range of 100 to 500 nM.
On the same count and under the same terms, then `O=C(Nc1cc(Cl)ccc1Cl)Nc1ccccc1CCO` [Example 162], with 500 to 1000 nM; and `CCOC(=O)c1ccc(NC(=O)Nc2ccccc2CCO)cc1` [Example 163], with 500 to 1000 nM; and `O=C(Nc1ccccc1CCO)Nc1cccc2cc(O)ccc12` [Example 167], with 500 to 1000 nM.
Same read-out and setting: the figure for `CN(C)c1ccc(-c2cccc(NC(=O)Nc3ccccc3CCO)c2)cc1` [Example 170] is less than 100 nM; for `CC(C)(C)c1ccc(C(C)(C)C)c(NC(=O)Nc2ccccc2CCO)c1` [Example 177] it is 500 to 1000 nM.
Still for that read-out and setting: the figure for `O=C(Nc1ccc(-c2ccc([N+](=O)[O-])cc2)cc1)Nc1ccccc1CCO` [Example 178] is 100 to 500 nM; for `O=C(Nc1cccc(-c2ccc(F)cc2)c1)Nc1ccccc1CCO` [Example 193] it is less than 100 nM.
As for `O=C(Nc1cccc(-c2ccc(Cl)cc2)c1)Nc1ccccc1CCO` [Example 194], the IC50 at human VR1 (setting [2]) was less than 100 nM.
As to `COc1cccc(NC(=O)Nc2cccc(-c3ccc(Cl)cc3)c2)c1CCO` [Example 251], the IC50 at human VR1 (setting [2]) was less than 100 nM.

These data come from patent US20050154230A1, “Urea derivatives” (Bayer HealthCare AG, priority 2001, published 2005).
